Experiment [1] addresses T1, Bromodomain-containing protein 2 (Homo sapiens, UniProt P25440). Nature of the experiment: Inhibition of HTRF binding to N-terminal His-tagged BRD2(2) (unknown origin) at 50 uM using biotinylated tetra-acetylated histone H4 peptide and Cryptate-labeled streptavidin incubated for 2 hrs by TR-FRET assay. Background: Time-resolved FRET reads energy transfer from a long-lived donor to a nearby acceptor.
Target sequence in this assay (P25440 whole entry, looked up): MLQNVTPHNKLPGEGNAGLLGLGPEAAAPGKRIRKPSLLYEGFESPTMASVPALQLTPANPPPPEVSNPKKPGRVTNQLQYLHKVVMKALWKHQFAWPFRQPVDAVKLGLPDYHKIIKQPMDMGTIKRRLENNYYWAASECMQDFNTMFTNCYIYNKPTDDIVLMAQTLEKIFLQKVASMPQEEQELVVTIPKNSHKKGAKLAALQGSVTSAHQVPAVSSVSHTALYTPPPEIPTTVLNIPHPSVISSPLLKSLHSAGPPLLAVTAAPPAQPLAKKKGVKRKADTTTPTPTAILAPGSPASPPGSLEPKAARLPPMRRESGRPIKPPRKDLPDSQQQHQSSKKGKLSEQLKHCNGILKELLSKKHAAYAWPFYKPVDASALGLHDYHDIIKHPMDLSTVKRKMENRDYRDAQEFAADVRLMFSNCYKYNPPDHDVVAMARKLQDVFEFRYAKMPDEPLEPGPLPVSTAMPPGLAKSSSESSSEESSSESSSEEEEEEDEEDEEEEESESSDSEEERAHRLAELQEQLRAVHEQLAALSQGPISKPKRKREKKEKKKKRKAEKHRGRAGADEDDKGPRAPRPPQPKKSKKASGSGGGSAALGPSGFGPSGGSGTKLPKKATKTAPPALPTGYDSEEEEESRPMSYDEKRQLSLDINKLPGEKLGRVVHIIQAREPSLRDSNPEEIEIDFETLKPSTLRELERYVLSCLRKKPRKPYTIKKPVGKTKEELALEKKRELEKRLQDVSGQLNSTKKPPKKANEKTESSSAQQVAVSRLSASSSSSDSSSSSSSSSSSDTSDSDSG

The target in experiment [2] is T2, Bromodomain-containing protein 4 (Homo sapiens, UniProt O60885). Nature of the experiment: Inhibition of HTRF binding to N-terminal His-tagged BRD4(1) (unknown origin) at 50 uM using biotinylated tetra-acetylated histone H4 peptide and Cryptate-labeled streptavidin incubated for 2 hrs by TR-FRET assay.
The target of experiment [3] is T2, Bromodomain-containing protein 4. Briefly: Inhibition of HTRF binding to N-terminal His-tagged BRD4(1) (unknown origin) using biotinylated tetra-acetylated histone H4 peptide and Cryptate-labeled streptavidin incubated for 2 hrs by TR-FRET assay.
For experiment [4], the target named is T1, Bromodomain-containing protein 2. Briefly: Inhibition of HTRF binding to N-terminal His-tagged BRD2(2) (unknown origin) using biotinylated tetra-acetylated histone H4 peptide and Cryptate-labeled streptavidin incubated for 2 hrs by TR-FRET assay.
Target sequence in this assay (P25440 whole entry): as the sequence (P25440 whole entry, looked up) above

Broadly, the inhibition is how much of the control response was suppressed. The low end stands for a response near the control, the high end for a response far below the control. With `CSc1ccc(Cl)c(C(=O)N2CC(=O)Nc3ccccc32)c1`, the inhibition in experiment [1] and in experiment [2] was 0% throughout.
The term IC50 denotes the concentration at which inhibition is half-maximal. A higher IC50 goes with weaker potency. With `O=C1CN(C(=O)c2cc(O)cc(-c3ccccc3)c2)c2ccccc2N1`, in experiment [3], the half-maximal inhibitory concentration (IC50) is 9 µM.
On to `CC(C)Sc1ccccc1C(=O)N1CC(=O)Nc2ccccc21`, for which the inhibition is 25% in experiment [1] and 0% in experiment [2].
Take `O=C1CN(C(=O)c2cncc(-c3ccccc3)c2)c2ccccc2N1`: the results for the half-maximal inhibitory concentration (IC50) in experiment [3] and in experiment [4] were 26 µM and 20 µM, respectively.
Turning to `Cc1cccc(OCCC(=O)N2CC(=O)Nc3ccccc32)c1`, the inhibition in experiment [1] turned out to be 25%; in experiment [2] it was 0%.
Take `COc1ccc(/C=C(/C(=O)N2CC(=O)Nc3cc(OC)ccc32)c2ccc(OC)cc2)cc1`: the IC50 in experiment [3] and in experiment [4] was 13 µM throughout.
Consider `O=C1CN(C(=O)Cc2cccc3ccccc23)c2ccccc2N1`, for which the inhibition in experiment [1] was greater than 50%; in experiment [2] it was greater than 25%.
On to `COc1ccc(/C=C(/C(=O)N2CC(=O)Nc3ccccc32)c2ccccc2)cc1`, for which the inhibition is greater than 50% in experiment [1] and greater than 25% in experiment [2]. The 50% inhibitory concentration (IC50) amounted to 26 µM in experiment [3] and 22 µM in experiment [4].
With `CS(=O)(=O)N(CC(=O)N1CC(=O)Nc2ccccc21)c1ccccc1F`, the inhibition in experiment [1] and in experiment [2] was 0% each time.
Take `CSc1ccccc1C(=O)N1CC(=O)Nc2ccccc21`: the inhibition in experiment [1] is greater than 50%; in experiment [2] it was greater than 25%.
Turning to `CCn1ccc(C(=O)N2CC(=O)Nc3ccccc32)n1`, the inhibition in experiment [1] was greater than 50%; in experiment [2] it was greater than 25%.
`COc1ccc(/C=C(/C(=O)N2CC(=O)Nc3ccccc32)c2ccc(C)c(C)c2)cc1`: the 50% inhibitory concentration (IC50) in experiment [3] was 14 µM; in experiment [4], greater than 50 µM.
Consider `O=C1CN(C(=O)c2cncc(-c3ccc(F)cc3)c2)c2ccccc2N1`, for which the IC50 in experiment [3] is 47 µM. This counts as double-digit micromolar.
`COc1ccc(/C=C(/C(=O)N2CC(=O)Nc3ccccc32)c2ccc(OC)cc2)cc1`: the IC50 in experiment [3] came to 16 µM; in experiment [4], 13 µM.
For the molecule `CCc1ccc(CC(=O)N2CC(=O)Nc3ccccc32)cc1`, the inhibition in experiment [1] and in experiment [2] was 0% each time.
For the molecule `O=C1CN(C(=O)Cc2ccc(Cl)cc2)c2ccccc2N1`, the values for the inhibition in experiment [1] and in experiment [2] were 25% and 0%, respectively.
`COC(=O)c1ccc(/C=C(/C(=O)N2CC(=O)Nc3ccccc32)c2ccccc2)cc1`: the half-maximal inhibitory concentration (IC50) in experiment [3] and in experiment [4] was 25 µM throughout.
For `COc1ccc(/C=C(/C(=O)N2CC(=O)Nc3ccccc32)c2ccc(OC)cc2OC)cc1`, the half-maximal inhibitory concentration (IC50) in experiment [3] and in experiment [4] was greater than 50 µM throughout.
Take `COc1ccc(CC(=O)N2CC(=O)Nc3ccccc32)cc1OC`: the figures for the inhibition in experiment [1] and in experiment [2] were 25% and 0%, respectively.
With `O=C1CN(C(=O)c2cccc(F)c2)c2ccccc2N1`, the figures for the inhibition in experiment [1] and in experiment [2] were 25% and 0%, respectively.
In the case of `NC(=O)c1ccc(/C=C(/C(=O)N2CC(=O)Nc3ccccc32)c2ccccc2)cc1`, the results for the half-maximal inhibitory concentration (IC50) in experiment [3] and in experiment [4] were 46 µM and 49 µM, respectively.
For `O=C1CN(C(=O)c2cc(-c3cccc(Cl)c3)[nH]n2)c2ccccc2N1`, the inhibition in experiment [1] and in experiment [2] was 0% throughout.
For `Cc1ccc(CC(=O)N2CC(=O)Nc3ccccc32)cc1`, the inhibition in experiment [1] and in experiment [2] was 0% in each case.
As to `COc1ccc(/C=C(/C(=O)N2CC(=O)Nc3ccccc32)c2ccc(NC(C)=O)cc2)cc1`, the half-inhibitory concentration (IC50) in experiment [3] is 13 µM; in experiment [4] it was 24 µM.
Consider `O=C1CN(C(=O)CCc2ccccc2Cl)c2ccccc2N1`, for which the inhibition in experiment [1] was found to be 25%; in experiment [2], 0%.
`O=C1CN(C(=O)c2cncc(-c3cccc(O)c3)c2)c2ccccc2N1`: in experiment [3], the 50% inhibitory concentration (IC50) came out at 29 µM. This lies in the double-digit micromolar range.
Turning to `CC(=O)Nc1cccc(/C=C(/C(=O)N2CC(=O)Nc3ccccc32)c2ccccc2)c1`, the results for the IC50 in experiment [3] and in experiment [4] were 40 µM and 10 µM, respectively.
As to `O=C1CN(C(=O)Cc2cccs2)c2ccccc2N1`, the inhibition in experiment [1] and in experiment [2] was 0% each time.
As to `COc1ccc(/C=C(/C(=O)N2CC(=O)Nc3ccccc32)c2cccs2)cc1`, the IC50 in experiment [3] worked out at 13 µM; in experiment [4] it was 23 µM.
`COc1ccc(/C(=C\c2ccncc2)C(=O)N2CC(=O)Nc3ccccc32)cc1`: the IC50 in experiment [3] is 25 µM; in experiment [4], 5 µM.
Molecule `COc1cccc(-c2cncc(C(=O)N3CC(=O)Nc4ccccc43)c2)c1` displayed a 50% inhibitory concentration (IC50) in experiment [3] of 25 µM.
With `COc1ccc(/C=C(/C(=O)N2CC(=O)Nc3ccccc32)c2ccc(OC)c(OC)c2)cc1`, the half-maximal inhibitory concentration (IC50) in experiment [3] was found to be 18 µM; in experiment [4], 26 µM.
In experiment [3], `COc1cc(NCc2ccccc2)cc(C(=O)N2CC(=O)Nc3ccccc32)c1` showed a half-inhibitory concentration (IC50) greater than 50 µM.
For the molecule `CSc1ccc(CC(=O)N2CC(=O)Nc3ccccc32)cc1`, the inhibition in experiment [1] and in experiment [2] was 0% in each case.
Turning to `COc1ccc(/C=C(/C(=O)Nc2c(C)noc2C)c2ccc(OC)cc2)cc1`, the IC50 is 44 µM in experiment [3] and 12 µM in experiment [4].
On to `O=C1CN(C(=O)c2cccc(C(F)(F)F)c2)c2ccccc2N1`, for which the inhibition in experiment [1] was greater than 50%; in experiment [2], greater than 25%.
Consider `O=C1CN(C(=O)C(c2ccccc2)c2ccccc2)c2ccccc2N1`, for which the inhibition was greater than 50% in experiment [1] and greater than 25% in experiment [2].
Consider `N#Cc1cccc(-c2cncc(C(=O)N3CC(=O)Nc4ccccc43)c2)c1`, for which the figures for the half-maximal inhibitory concentration (IC50) in experiment [3] and in experiment [4] were 44 µM and 12 µM, respectively.
Take `O=C1CN(C(=O)c2sc3ccccc3c2Cl)c2ccccc2N1`: the values for the inhibition in experiment [1] and in experiment [2] were 25% and 0%, respectively.
With `Cc1ccc(-c2cc(C(=O)N3CC(=O)Nc4ccccc43)[nH]n2)cc1`, the inhibition in experiment [1] and in experiment [2] was 0% throughout.
On to `COc1ccc(/C=C(/C(=O)N2CC(=O)Nc3cc(OC)ccc32)c2ccccc2)cc1`, for which the results for the IC50 in experiment [3] and in experiment [4] were 34 µM and greater than 50 µM, respectively.
Regarding `O=C1CN(C(=O)c2cncc(-c3ccc(Cl)cc3)c2)c2ccccc2N1`, the half-inhibitory concentration (IC50) in experiment [3] stood at 49 µM. In other words, the double-digit micromolar range.
Take `COc1cccc(OCC(=O)N2CC(=O)Nc3ccccc32)c1`: the inhibition stood at 25% in experiment [1] and 0% in experiment [2].
Molecule `COc1cc(C(=O)N2CC(=O)Nc3ccccc32)cc(-c2ccccc2)c1` came in with a half-maximal inhibitory concentration (IC50) in experiment [3] of 13 µM.

(Values after ChEMBL document CHEMBL3588835, “Discovery of a new chemical series of BRD4(1) inhibitors using protein-ligand docking and structure-guided design” (Bioorg Med Chem Lett, 2015).)
